According to patent US20050153872A1, “Methods and compositions for the treatment of infection” (priority 2004, published 2005):

Legend:
[1] = test system: Staphylococcus aureus MRSA BAA-42; experiment: microbe, parasite or virus in culture; format: cell-based; settings: Staphylococcus aureus MRSA BAA-42
[2] = test system: Escherichia coli 02-1-65; experiment: MIC against challenge strain (Table 3); format: cell-based
[3] = test system: Staphylococcus aureus MSSA strain (88); experiment: In vitro antibacterial activity (MIC), clinical isolates; format: cell-based; settings: 88 MSSA clinical isolates
How it was run: (§1)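 Clinical isolates collected in Sichuan and Beijing in 2002, identified with the API system, were exposed to test compound to determine MIC50, MIC90 and MIC range. S. aureus ATCC25923, 29213 and BAA-42 served as control strains.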

[4] = test system: Enterococcus (20); experiment: as above; format: cell-based; settings: 20 Enterococcus clinical isolates
How it was run: as §1

[5] = test system: Staphylococcus epidermidis MSSE strain (21); experiment: as above; format: cell-based; settings: 21 MSSE clinical isolates
How it was run: as §1

[6] = test system: Staphylococcus aureus MRSA strain (80); experiment: as above; format: cell-based; settings: 80 MRSA clinical isolates
How it was run: as §1

[7] = test system: Staphylococcus aureus MRSA 02-18; experiment: microbe, parasite or virus in culture; format: cell-based; settings: Staphylococcus aureus MRSA 02-18
[8] = test system: ATCC 700802 VRE cells; experiment: Ph-EF protection of ATCC 700802 infected mice; format: in vivo; settings: 5 animals
Procedure: To assess in vivo effects of Ph-EF, mice were injected with a fatal dosage of ATCC 700802 VRE cells intraperitoneally. […] Mice were inspected every 24 hours for 7-14 days. Dead mice would be counted as positive results.

[9] = test system: ATCC 700671 PRSP (S. pneumoniae); experiment: In vivo protection effects of Ph-SP; design: species or system mice; settings: 5 animals
Procedure: To assess the in vivo effect of Ph-SP, mice were injected with ATCC 700671 PRSP intraperitoneally, followed by intravenous injections of PH-SP or controls.
One hour after administration of the fatal dose of ATCC 700671 PRSP (10^5 CFU/ml), each mouse was injected through the tail vein with test agents at three dosages as described in Table 4.

[10] = test system: vancomycin-sensitive Enterococcus ATCC29212; settings: 3 ug/ml; ATCC 29212 cells
[11] = test system: S. pneumoniae ATCC 700671 (Penicillin-resistant SP); settings: 5 ug/ml
[12] = test system: Staphylococcus aureus ATCC 29213; experiment: MIC against challenge strain (Table 3); format: cell-based
[13] = test system: Enterococcus faecalis ATCC 700802; experiment: In vivo protection of infected mice; design: species or system Kungming mice; settings: mice, i.p. infection 8.0 × 10^6 cfu/ml
Procedure: (§2) The following experiments were performed by Pharmacology Lab, National Sichuan antibiotic industril institute, Chengdu, Sichuan.
(§3) The agents described above were diluted with sterilized water to final concentrations of 10 mg/L, 5 mg/Land 2.5 mg/L.
(§4) Staphylococcus aureus ATCC BAA-42(MRSA) and enterococcus faecalis ATCC 700802 were used as control strains.
(§5) 170 mice (Kungming mice: 18˜22 g, 85 males and 85 females) were randomly divided into four groups and injected with a fatal dosage of staphylococci, enterococcus and E. coli intraperitoneally. […] Mice were inspected every 24 hours for 7-14 days. Dead mice were counted as positive results. The results are depicted in Table 3 and FIGS. 4 and 5A-B.

[14] = test system: Staphylococcus aureus MRSA BAA-42; experiment: In vivo protection of infected mice; design: species or system Kungming mice; settings: mice, i.p. infection 5.5 × 10^5 cfu/ml
Procedure: as §2, §3, §4, §5

[15] = test system: Staphylococcus aureus MRSA 02-18; experiment: In vivo protection of infected mice; design: species or system Kungming mice; settings: mice, i.p. infection 1.7 × 10^5 cfu/ml
Procedure: as §2, §3, §4, §5

[16] = test system: Escherichia coli 02-1-65; experiment: In vivo protection of infected mice; design: species or system Kungming mice; settings: i.p. infection 3.3 × 10^5 cfu/ml
Procedure: as §2
(§6) The agents described above were diluted with sterilized water to final concentrations of 10 mg/L, 5 mg/Land 2.5 mg/L. […]
as §5

[17] = test system: Staphylococcus aureus ATCC 29213; experiment: In vivo protection of infected mice; design: species or system Kungming mice; settings: i.p. infection 3.6 × 10^5 cfu/ml
Procedure: as §2, §6, §5

[18] = test system: Enterococcus faecalis ATCC 700802; experiment: microbe, parasite or virus in culture; format: cell-based; settings: Enterococcus faecalis, ATCC700802
[19] = test system: MRSA strain ATCC BAA-42; experiment: Electron micrographs of bactericidal effects; format: cell-based, S. aureus; settings: Ph-SA 50 μg/ml 0.5 hrs; wild type colicin Ia 50 μg/ml 2 hrs; AgrDI 10 μg/ml 2 hrs
From the text: Electron Micrographs of Bactericidal Effects of Ph-SA1 Against ATCC BAA-42 MRSA Strain Cells (1% Phosphotungstic Acid. 25,000×)

[20] = test system: S. pneumoniae BQIOC 31201 (non-resistant); settings: 5 ug/ml; S. pneumoniae BQIOC 31201
[21] = 1st Time, i.v. treatment after one hour
[22] = 2nd Time (value in parentheses), i.v. treatment

sodium penicillin
MIC [1]: 8 µg/mL | MIC [2]: >128 µg/mL | MIC50 [3]: 8 µg/mL | MIC90 [3]: 64 µg/mL | MIC50 [4]: 32 µg/mL | MIC90 [4]: 64 µg/mL | MIC50 [5]: 4 µg/mL | MIC90 [5]: 32 µg/mL | MIC Scope [5]: 0.125˜128 mg/l | MIC Scope [6]: 1˜128 mg/l | MIC [7]: >16 µg/mL | Death distribution in hours 24 h ([8]; 5 mg/kg intravenously): 0 | Death distribution in hours 48 h ([8]; 5 mg/kg intravenously): 1 | Death distribution in hours 72 h ([8]; 5 mg/kg intravenously): 1 | Death distribution in hours 96 h ([8]; 5 mg/kg intravenously): 1 | Death distribution in hours 120 h ([8]; 5 mg/kg intravenously): 0 | Death distribution in hours 144 h ([8]; 5 mg/kg intravenously): 0 | Death distribution in hours 168 h ([8]; 5 mg/kg intravenously): 0 | Number of Death ([8]; 5 mg/kg intravenously): 3 | Death distribution in hours 24 h ([8]; 10 mg/kg intravenously): 0 | Death distribution in hours 48 h ([8]; 10 mg/kg intravenously): 0 | Death distribution in hours 72 h ([8]; 10 mg/kg intravenously): 0 | Death distribution in hours 96 h ([8]; 10 mg/kg intravenously): 0 | Death distribution in hours 120 h ([8]; 10 mg/kg intravenously): 0 | Death distribution in hours 144 h ([8]; 10 mg/kg intravenously): 0 | Death distribution in hours 168 h ([8]; 10 mg/kg intravenously): 0 | Number of Death ([8]; 10 mg/kg intravenously): 0 | Death distribution in hours 24 h ([9]; 5 mg/kg tail vein): 3 | Death distribution in hours 48 h ([9]; 5 mg/kg tail vein): 0 | Death distribution in hours 72 h ([9]; 5 mg/kg tail vein): 0 | Death distribution in hours 96 h ([9]; 5 mg/kg tail vein): 0 | Death distribution in hours 120 h ([9]; 5 mg/kg tail vein): 0 | Death distribution in hours 144 h ([9]; 5 mg/kg tail vein): 0 | Death distribution in hours 168 h ([9]; 5 mg/kg tail vein): 0 | Number of Death ([9]; 5 mg/kg tail vein): 3 | Death distribution in hours 24 h ([9]; 10 mg/kg tail vein): 3 | Death distribution in hours 48 h ([9]; 10 mg/kg tail vein): 0 | Death distribution in hours 72 h ([9]; 10 mg/kg tail vein): 0 | Death distribution in hours 96 h ([9]; 10 mg/kg tail vein): 0 | Death distribution in hours 120 h ([9]; 10 mg/kg tail vein): 0 | Death distribution in hours 144 h ([9]; 10 mg/kg tail vein): 0 | Death distribution in hours 168 h ([9]; 10 mg/kg tail vein): 0 | Number of Death ([9]; 10 mg/kg tail vein): 3 | inhibition of cell growth [10]: inhibited cell growth | inhibition of cell growth [11]: did not have a growth inhibitory effect | MIC [12]: 16 µg/mL | ED50 [13, 21]: 3.16 mg/kg | ED50 [13, 22]: (3.08) mg/kg | ED50 [14, 21]: >10 mg/kg | ED50 [14, 22]: (14.71) mg/kg | ED50 [15, 21]: 7.28 mg/kg | ED50 [15, 22]: (11.33) mg/kg | ED50 [16, 21]: >30.77 mg/kg | ED50 [16, 22]: (>30.77) mg/kg | ED50 [17, 21]: 10.75 mg/kg | ED50 [17, 22]: (9.84) mg/kg | MIC [18]: 2 µg/mL

B1: wild type colicin Ia: wild type colicin Ia, channel forming polypeptide without targeting agent (protein)
chain: MSDPVARGITNPGAESLGYDSDGHEIMAVASPIYVASNPPRVASPVFHGTPPAWSSFGNKTIWGGNEWVASPDSPTRSDIEKRDKEITAYKNTLSAQQKENENKRTEAGKRLSAAIAAREKDENTLKTLRAGNADAADITRQEFRLLQAELREYGFRTEIAGYDALRLHTESRMLFADADSLRISPREARSLIEQAEKRQKDAQNADKKAADMLAEYERRKGILDTRLSELEKNGGAALAVLDAQQARLLGQQTRNDRAISEARNKLSSVTESLNTARNALTRAEQQLTQQKNTPDGKTIVSPEKFPGRSSTNHSIVVSGDPRFAGTIKITTSAVIDNRANLNYLLSHSGLDYKRNILNDRNPVVTEDVEGDKKIYNAEVALAEWDKLRQRLLDARNKITSAESAVASNSARNNLSARTNEQKHANDALNALLKEKENIRNQLSGINQKIAEEKRKQDELKATKDAINFTTEFLKSVSEKYGAKAEQLAREMAGQAKGKKIRNVEEALKTYEKYRADINKKINAKDRAAIAAALESVKLSDISSNLNRFSRGLGYAGKFTSLADWITEFGKAVARGTENWRPLFVKTETIIAGNAATALVALALVFSILTGSALGIIGYGLLMAVTGALIDESLVEKANKFWGI
modifications: E. coli
notes: wild type colicin Ia, channel forming polypeptide without targeting agent
bactericidal effect / effect on cell growth (electron micrographs) [19]: no effect on cell growth | inhibition of cell growth [20]: did not inhibit growth | inhibition of cell growth [10]: failed to inhibit growth
